The compounds below were run against T1, human TLR7 (hTLR7) (Homo sapiens, UniProt Q9NYK1) (assay: Antagonist screen, hTLR7-NFκB-293 cells, NF-κB-luciferase reporter, with EC50 of R848). Conditions: compound at 0.5, 5, 50 μg/ml; EC50 concentration of R848; 16 h; NF-κB-luciferase.
T1 construct: expressed in transfected cells
T1 sequence (Q9NYK1 27-1049): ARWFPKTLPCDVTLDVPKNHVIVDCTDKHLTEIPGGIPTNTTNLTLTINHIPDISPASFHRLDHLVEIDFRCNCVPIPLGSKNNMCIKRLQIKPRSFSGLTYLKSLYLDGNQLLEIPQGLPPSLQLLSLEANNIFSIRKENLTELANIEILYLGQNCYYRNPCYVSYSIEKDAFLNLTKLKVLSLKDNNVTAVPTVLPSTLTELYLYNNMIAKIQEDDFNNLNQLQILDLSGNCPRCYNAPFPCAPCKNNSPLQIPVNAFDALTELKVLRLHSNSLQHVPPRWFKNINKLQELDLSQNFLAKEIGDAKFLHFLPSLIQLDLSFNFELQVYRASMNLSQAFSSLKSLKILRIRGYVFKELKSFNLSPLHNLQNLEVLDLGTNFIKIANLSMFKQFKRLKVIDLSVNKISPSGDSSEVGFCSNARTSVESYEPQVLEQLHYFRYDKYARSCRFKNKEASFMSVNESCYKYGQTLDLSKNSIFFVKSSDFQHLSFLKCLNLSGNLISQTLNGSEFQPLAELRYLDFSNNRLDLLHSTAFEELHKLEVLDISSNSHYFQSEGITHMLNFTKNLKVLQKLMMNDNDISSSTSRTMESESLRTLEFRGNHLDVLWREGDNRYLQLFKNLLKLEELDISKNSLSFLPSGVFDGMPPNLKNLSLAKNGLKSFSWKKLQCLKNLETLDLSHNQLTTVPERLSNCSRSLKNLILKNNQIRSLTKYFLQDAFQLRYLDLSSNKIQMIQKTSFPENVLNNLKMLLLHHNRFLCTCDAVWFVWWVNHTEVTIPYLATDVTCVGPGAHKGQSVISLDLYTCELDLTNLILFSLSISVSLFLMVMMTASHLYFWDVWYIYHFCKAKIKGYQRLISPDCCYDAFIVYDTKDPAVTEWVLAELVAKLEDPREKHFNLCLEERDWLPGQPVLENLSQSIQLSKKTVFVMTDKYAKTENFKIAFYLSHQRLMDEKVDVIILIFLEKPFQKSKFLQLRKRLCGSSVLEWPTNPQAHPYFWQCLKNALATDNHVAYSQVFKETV
Format: cell-based
Protocol: The method is described in greater detail as follows. The cells for each individual cell clone (hTLR3-NFκB-293, hTLR7-NFκB-293, hTLR8-NFκB-293 and hTLR9-NFκB-293) were counted and seeded one day before the stimulation at 1.5×10^4 cells per well in 96-well cell culture plates. To become adherent the cells were incubated after seeding overnight at 37° C. in 5% CO2 humidified air.
The screen for each compound was performed at the same time for all of the receptors TLR3, TLR7, TLR8 and TLR9. Up to fifteen test compounds, each assayed in duplicate at each of three different final concentrations (0.5 μg/ml, 5 μg/ml, and 50 μg/ml), were used for 16 h cell stimulation on a single multiwell culture plate. A 4× final concentration master plate was created to prepare the different test compounds before they were added to the cells.
Controls were added as duplicates individually for each cell clone on the cell culture plate. Positive controls were used as follows (final concentrations): 50 μg/ml poly(I:C) for hTLR3-NFκB-293; 8 μM resiquimod (R848) for hTLR7-NFκB-293; 30 μM R848 for hTLR8-NFκB-293; and 2.5 μM CpG-ODN 2006 for hTLR9-NFκB-293. Media alone was used as negative control. After addition of controls and small molecules, the cell clones were additionally stimulated with the EC50 concentration of the appropriate receptor-specific ligand.
The mean value of wells H2 and H5 (each with cells and EC50 concentration of the appropriate receptor-specific ligand) divided by the mean of wells H3 and H6 (each with cells alone) yielded the baseline response (i.e., fold induction of luciferase activity) to EC50 concentration of the appropriate receptor-specific ligand.
After 16 h stimulation the supernatant was removed and the cells treated with lysis buffer and stored at −80° C. before measuring.
For each screen result a graphical documentation was performed.
The baseline result (measured with addition of the EC50 concentration of the receptor-specific ligand) for each cell culture plate was measured as described above. Antagonistic effects were measured by down regulation compared to the baseline. Antagonists were scored as follows: • 13: compounds for which there was clear down regulation at 0.5 μg/ml, 5 μg/ml, and 50 μg/ml; • 12: compounds for which there was clear down regulation at 5 μg/ml and 50 μg/ml; • 11: compounds for which there was clear down regulation only at 50 μg/ml; • —: compounds for which there was no clear down regulation even at 50 μg/ml. Agonists
Results were expressed as fold induction over baseline luciferase activity measured in the absence of R848. […] Additional screening was performed in like manner using additional small molecules selected from another library or specifically prepared for this purpose. Scoring is reported as above but as applied to TLR7.
In the case of `COCCCNC(=O)c1ccc2c(c1N)C(=O)c1ccccc1C2=O` [compound 1337], the “hTLR7 (inhibitory effect, antagonist score)” value is reported as 11 (compounds for which there was clear down regulation only at 50 μg/ml). For `Clc1ccc(C(c2ccccc2Cl)C(Cl)Cl)cc1` (centres unmarked) [compound 833, Mitotane], the “hTLR7 (inhibitory effect, antagonist score)” value was 11 (compounds for which there was clear down regulation only at 50 μg/ml). With `CC(=O)c1ccc2c(c1)N(CCCN(C)C)c1ccccc1S2.O=C(O)/C=C\C(=O)O` [compound 576, Acetopromazinemaleate salt] the “hTLR7 (inhibitory effect, antagonist score)” value was “— (compounds for which there was no clear down regulation even at 50 μg/ml)”. `O=C1Nc2ccccc2Oc2ccc([N+](=O)[O-])cc21` [compound 1352] was tested, and the “hTLR7 (inhibitory effect, antagonist score)” value was 13 (compounds for which there was clear down regulation at 0.5 μg/ml, 5 μg/ml, and 50 μg/ml). `CCCCOC(=O)c1cc([N+](=O)[O-])cc2c1-c1cc(CO)c([NH+]([O-])O)cc1C2=C(C#N)C#N` (centres unmarked) [compound 939] was tested, and the “hTLR7 (inhibitory effect, antagonist score)” value was 11 (compounds for which there was clear down regulation only at 50 μg/ml). `O=C(O)c1cccc2c1/C(=N/O)c1ccccc1-2` [compound 918] was tested, and the “hTLR7 (inhibitory effect, antagonist score)” value was 11 (compounds for which there was clear down regulation only at 50 μg/ml). In the case of `COC(=O)C1=CO[C@@H](C)[C@@H]2CN3CCc4c([nH]c5ccccc45)[C@@H]3C[C@H]12` [compound 593, Tetrahydroalstonine], the “hTLR7 (inhibitory effect, antagonist score)” value is reported as 11 (compounds for which there was clear down regulation only at 50 μg/ml). `Cl.Cl.OCCN1CCN(CC/C=C2/c3ccccc3Sc3ccc(C(F)(F)F)cc32)CC1` [compound 340, Flupentixoldihydrochloride cis-(Z)] was tested, and the “hTLR7 (inhibitory effect, antagonist score)” value was 11 (compounds for which there was clear down regulation only at 50 μg/ml). With `CS(=O)(=O)O.OC(CCN1CCCCC1)(c1ccccc1)c1ccccc1` [compound 799, Pridinolmethanesulfonate salt] the “hTLR7 (inhibitory effect, antagonist score)” value was “— (compounds for which there was no clear down regulation even at 50 μg/ml)”. With `Cc1cccc(C)c1NC(=O)CN1CCN(CCCC(c2ccc(F)cc2)c2ccc(F)cc2)CC1` [compound 381, Lidoflazine] the “hTLR7 (inhibitory effect, antagonist score)” value was 11 (compounds for which there was clear down regulation only at 50 μg/ml). For `CC1NCCc2c1[nH]c1ccccc21.Cl` (racemic) [compound 619, Eleagnine hydrochloride (R,S)], the “hTLR7 (inhibitory effect, antagonist score)” value was “— (compounds for which there was no clear down regulation even at 50 μg/ml)”. With `COc1ccc2c(c1)[nH]c1c(C)nccc12.Cl` [compound 613, harmine hydrochloride] the “hTLR7 (inhibitory effect, antagonist score)” value was 13 (compounds for which there was clear down regulation at 0.5 μg/ml, 5 μg/ml, and 50 μg/ml). `Cc1c2ccncc2c(C)c2c1[nH]c1ccccc12` [compound 614, Ellipticine] was tested, and the “hTLR7 (inhibitory effect, antagonist score)” value was 13 (compounds for which there was clear down regulation at 0.5 μg/ml, 5 μg/ml, and 50 μg/ml). For `Cl.Cl.Fc1ccc(C(OCCN2CCN(CCCc3ccccc3)CC2)c2ccc(F)cc2)cc1` [compound 386, GBR 12909hydrochloride], the “hTLR7 (inhibitory effect, antagonist score)” value was 11 (compounds for which there was clear down regulation only at 50 μg/ml). In the case of `OCCN1CCN(CCCN2c3ccccc3Sc3ccc(Cl)cc32)CC1` [compound 125, Perphenazine], the “hTLR7 (inhibitory effect, antagonist score)” value is reported as “— (compounds for which there was no clear down regulation even at 50 μg/ml)”. In the case of Flunarizinehydrochloride [compound 312], the “hTLR7 (inhibitory effect, antagonist score)” value is reported as “— (compounds for which there was no clear down regulation even at 50 μg/ml)”. With `OCc1cc2c(cn1)[nH]c1ccccc12` [compound 878, 3-hydroxymethyl-beta-carboline] the “hTLR7 (inhibitory effect, antagonist score)” value was “— (compounds for which there was no clear down regulation even at 50 μg/ml)”. With `CC(NCCC(c1ccccc1)c1ccccc1)c1ccccc1.Cl` (centres unmarked) [compound 270, Fendiline hydrochloride] the “hTLR7 (inhibitory effect, antagonist score)” value was 11 (compounds for which there was clear down regulation only at 50 μg/ml). “Trifluoperazinedihydrochloride [compound 313]” was tested, and the “hTLR7 (inhibitory effect, antagonist score)” value was 11 (compounds for which there was clear down regulation only at 50 μg/ml). With `Cl.Clc1ccc(C(OCCN2CCCCC2)c2ccccc2)cc1` (centres unmarked) [compound 793, Cloperastinehydrochloride] the “hTLR7 (inhibitory effect, antagonist score)” value was 11 (compounds for which there was clear down regulation only at 50 μg/ml). In the case of `CC(CN(C)C)CN1c2ccccc2Sc2ccccc21.CC(CN(C)C)CN1c2ccccc2Sc2ccccc21.O=C(O)C(O)C(O)C(=O)O` (centres unmarked) [compound 842, Trimeprazine tartrate], the “hTLR7 (inhibitory effect, antagonist score)” value is reported as “— (compounds for which there was no clear down regulation even at 50 μg/ml)”. `CN1CCCCC1CCN1c2ccccc2Sc2ccc([S+](C)[O-])cc21.O=S(=O)(O)c1ccccc1` (centres unmarked) [compound 529, Mesoridazine besylate] was tested, and the “hTLR7 (inhibitory effect, antagonist score)” value was “— (compounds for which there was no clear down regulation even at 50 μg/ml)”. With `CN1CCC2C(C1)c1ccccc1N2Cc1ccccc1` (centres unmarked) [compound 455, Mebhydroline 1,5 naphtalenedisulfonate] the “hTLR7 (inhibitory effect, antagonist score)” value was “— (compounds for which there was no clear down regulation even at 50 μg/ml)”. For `NC(=O)c1cc(N)c2c(c1N)C(=O)c1ccccc1C2=O` [compound 1158], the “hTLR7 (inhibitory effect, antagonist score)” value was “— (compounds for which there was no clear down regulation even at 50 μg/ml)”. With `CCN(CC)CCCN(CC(=O)C1c2ccc(Cl)cc2NC(=O)c2ccccc21)C(=O)c1ccccc1` (centres unmarked) [compound 1013] the “hTLR7 (inhibitory effect, antagonist score)” value was “— (compounds for which there was no clear down regulation even at 50 μg/ml)”. For `COC(=O)c1cccc2c1-c1ccccc1/C2=N/O` [compound 904], the “hTLR7 (inhibitory effect, antagonist score)” value was 12 (compounds for which there was clear down regulation at 5 μg/ml and 50 μg/ml). With “Prochlorperazinedimaleate [compound 399]” the “hTLR7 (inhibitory effect, antagonist score)” value was 12 (compounds for which there was clear down regulation at 5 μg/ml and 50 μg/ml). `CCN(CC)C(C)CN1c2ccccc2Sc2ccccc21.Cl` (centres unmarked) [compound 840, Ethopropazinehydrochloride] was tested, and the “hTLR7 (inhibitory effect, antagonist score)” value was “— (compounds for which there was no clear down regulation even at 50 μg/ml)”. For `CCCC(C(=O)OCCN(CC)CC)(c1ccccc1)c1ccccc1.Cl` [compound 778, Proadifen hydrochloride], the “hTLR7 (inhibitory effect, antagonist score)” value was 11 (compounds for which there was clear down regulation only at 50 μg/ml). With `CC1CCN(C(=O)c2cccc3c2-c2ccccc2C3=O)CC1` [compound 1243] the “hTLR7 (inhibitory effect, antagonist score)” value was 11 (compounds for which there was clear down regulation only at 50 μg/ml). `CN(CCO)C(=O)c1cccc2c1-c1ccccc1C2=O` [compound 890] was tested, and the “hTLR7 (inhibitory effect, antagonist score)” value was 11 (compounds for which there was clear down regulation only at 50 μg/ml). `COc1ccc2[nH]c3c(c2c1)CCN=C3C` [compound 621, Methoxy-6-harmalan] was tested, and the “hTLR7 (inhibitory effect, antagonist score)” value was “— (compounds for which there was no clear down regulation even at 50 μg/ml)”.
